Measured values from paper PMC12369479 (Journal of Experimental Botany, 2025).
Like-named read-outs stand apart in the source and are kept apart here.

Columns and labels:
ZmADK2 [1] = target: T1, ZmADK2 (Zea mays, UniProt B4FFH8, T4S); experiment: Binding affinity by microscale thermophoresis (MST); conditions: MST, 50 mM HEPES pH 7.5, 1 mM MgCl2, first or only binding event
Experimental: (§1) The microscale thermophoresis (MST) method was used to determine the binding affinity of various ribosides for ZmADK2 and PpADK1. Proteins were fluorescently labeled with RED-tris-NTA dye (www.nanotemper-technologies.com) using a 1:1 dye/protein molar ratio. The labeled protein was adjusted to 100–300 nM in 50 mM HEPES buffer pH 7.5, 1 mM MgCl2, and 0.2% Tween. Measurements were performed in premium capillaries on a Monolith NT.115 instrument at 30 °C with 5 s/30 s/5 s laser off/on/off times, respectively, with continuous sample fluorescence recording. Thermal stability was measured by nano-differential scanning fluorimetry on a Prometheus NT.48 instrument (www.nanotemper-technologies.com) in various buffers covering a pH (7.0–9.5) and temperature range (25–95 °C), with a heating rate of 1 °C min^–1, and using NT melting control software. Protein unfolding was measured by detecting the temperature-induced change in tryptophan fluorescence intensity at emission wavelengths of 330±5 nm and 350±5 nm. The melting temperature (Tm) was deduced from the maximum of the first derivative of the fluorescence ratios F350/F330.

ZmADK2 [2] = target: T1, ZmADK2; experiment: ADK activity, coupled reaction with PK and LDH; assay type: biochemical; conditions: pH 7.5
Experimental: (§2) Substrate analogs were purchased from Sigma-Aldrich (www.sigmaaldrich.com). The ADK activity was measured spectrophotometrically on an Agilent 8453 UV-Vis spectrophotometer (www.agilent.com) at 30 °C using a coupled reaction with pyruvate kinase (PK) and lactate dehydrogenase (LDH) (www.sigmaaldrich.com) ([Blondin et al., 1994]). In this assay, PK converts ADP produced by ADK and phosphoenolpyruvate (PEP) to pyruvate. Subsequently, LDH then converts pyruvate to lactate using the coenzyme NADH, with the conversion monitored at 340 nm. The reaction was conducted in 50 mM Tris–HCl buffer at pH 7.5, containing 50 mM KCl, 6 mM MgCl2, 300 µM PEP, 200 µM NADH, 10 mM ATP, 2 U of PK, and 2.5 U of LDH, using various nucleoside substrates. Kinetic constants were determined using GraphPad Prism 8.0 software (www.graphpad.com). Each measurement was performed six times using repetitive purified enzymes. The activities of all five ADKs were also measured by HPLC ([Moffatt et al., 1991]). The reaction mixture comprised 50 mM Tris–HCl pH 7.5, 5 mM MgCl2, 0.5 mM DTT, 30 mM NaF, 5 mM ATP, 40 µM substrate, and 2–150 ng of purified ADK, depending on the isoform. The reaction was incubated at 30 °C for up to 1 h. […] Similarly, the conversion of cytokinin ribosides to monophosphates was followed on a LiChrosphere 60 RP-Select B (5 µm) LiChroCART column 125-4 column equilibrated with 10 mM triethylamine at pH 5.4 plus 10% methanol, and stepwise eluted with 100% methanol.

ZmADK3 = ZmADK3 (Zea mays, UniProt A0A1D6E5Z5); experiment: ADK activity, coupled reaction with PK and LDH; assay type: biochemical; conditions: ZmADK3, 10 mM ATP, pH 7.5, 30 °C; for Specific activity: 100 µM substrate
Experimental: Substrate analogs were purchased from Sigma-Aldrich (www.sigmaaldrich.com). […] In this assay, PK converts ADP produced by ADK and phosphoenolpyruvate (PEP) to pyruvate. Subsequently, LDH then converts pyruvate to lactate using the coenzyme NADH, with the conversion monitored at 340 nm. The reaction was conducted in 50 mM Tris–HCl buffer at pH 7.5, containing 50 mM KCl, 6 mM MgCl2, 300 µM PEP, 200 µM NADH, 10 mM ATP, 2 U of PK, and 2.5 U of LDH, using various nucleoside substrates. Kinetic constants were determined using GraphPad Prism 8.0 software (www.graphpad.com). Each measurement was performed six times using repetitive purified enzymes. […] The reaction mixture comprised 50 mM Tris–HCl pH 7.5, 5 mM MgCl2, 0.5 mM DTT, 30 mM NaF, 5 mM ATP, 40 µM substrate, and 2–150 ng of purified ADK, depending on the isoform. The reaction was incubated at 30 °C for up to 1 h.

PpADK1 [3] = target: T2, PpADK1 (Physcomitrium patens, UniProt O49923); experiment: ADK activity, coupled reaction with PK and LDH; assay type: biochemical, Physcomitrella patens; conditions: 100 µM substrate, 10 mM ATP, pH 7.5, 30 °C
T2 construct: made in house; host or cells: E. coli T7 Express Iq
Experimental: as §2

PpADK2 = PpADK2 (Physcomitrium patens, UniProt A9RF27); experiment: ADK activity, coupled reaction with PK and LDH; conditions: 10 mM ATP, pH 7.5, 30 °C; for Specific activity: 100 µM substrate
Experimental: as §2

ZmADK1 = ZmADK1 (Zea mays, UniProt K7UH13); experiment: ADK activity, coupled reaction with PK and LDH; conditions: 10 mM ATP, pH 7.5, 30 °C; for Specific activity: 100 µM substrate
Experimental: as §2

rabbit ADK = system: rabbit ADK; design: method as in Miller et al., 1979a; conditions: ref Miller et al., 1979a; cited from earlier work
all five ADKs = experiment: ADK kinetics, coupled reaction (summary for all isoforms); assay type: biochemical, Zea mays, Physcomitrella patens; conditions: range over all five ADKs
Experimental: Substrate analogs were purchased from Sigma-Aldrich (www.sigmaaldrich.com). The ADK activity was measured spectrophotometrically on an Agilent 8453 UV-Vis spectrophotometer (www.agilent.com) at 30 °C using a coupled reaction with pyruvate kinase (PK) and lactate dehydrogenase (LDH) (www.sigmaaldrich.com) ([Blondin et al., 1994]). In this assay, PK converts ADP produced by ADK and phosphoenolpyruvate (PEP) to pyruvate. Subsequently, LDH then converts pyruvate to lactate using the coenzyme NADH, with the conversion monitored at 340 nm. The reaction was conducted in 50 mM Tris–HCl buffer at pH 7.5, containing 50 mM KCl, 6 mM MgCl2, 300 µM PEP, 200 µM NADH, 10 mM ATP, 2 U of PK, and 2.5 U of LDH, using various nucleoside substrates. Kinetic constants were determined using GraphPad Prism 8.0 software (www.graphpad.com). Each measurement was performed six times using repetitive purified enzymes. The activities of all five ADKs were also measured by HPLC ([Moffatt et al., 1991]). The reaction mixture comprised 50 mM Tris–HCl pH 7.5, 5 mM MgCl2, 0.5 mM DTT, 30 mM NaF, 5 mM ATP, 40 µM substrate, and 2–150 ng of purified ADK, depending on the isoform. The reaction was incubated at 30 °C for up to 1 h. […]

PpADK1 [4] = target: T2, PpADK1; experiment: Binding affinity by microscale thermophoresis (MST); design: species or system Physcomitrella patens; conditions: KD, 50 mM HEPES pH 7.5, 1 mM MgCl2, first or only binding event
Experimental: as §1

[5] = ZmADK2, 100 µM substrate, 10 mM ATP, 30 °C

Sequence of ZmADK3 (A0A1D6E5Z5 entry or part of it): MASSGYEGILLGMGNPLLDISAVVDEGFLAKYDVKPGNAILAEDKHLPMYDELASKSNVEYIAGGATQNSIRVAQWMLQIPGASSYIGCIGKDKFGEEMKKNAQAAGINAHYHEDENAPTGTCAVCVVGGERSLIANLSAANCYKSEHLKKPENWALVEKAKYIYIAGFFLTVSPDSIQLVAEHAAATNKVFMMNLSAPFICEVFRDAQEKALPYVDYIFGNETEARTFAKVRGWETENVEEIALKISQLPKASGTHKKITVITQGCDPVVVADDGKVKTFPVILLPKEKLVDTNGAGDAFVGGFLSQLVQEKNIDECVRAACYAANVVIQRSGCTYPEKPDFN
Sequence of ZmADK1 (K7UH13 entry or part of it): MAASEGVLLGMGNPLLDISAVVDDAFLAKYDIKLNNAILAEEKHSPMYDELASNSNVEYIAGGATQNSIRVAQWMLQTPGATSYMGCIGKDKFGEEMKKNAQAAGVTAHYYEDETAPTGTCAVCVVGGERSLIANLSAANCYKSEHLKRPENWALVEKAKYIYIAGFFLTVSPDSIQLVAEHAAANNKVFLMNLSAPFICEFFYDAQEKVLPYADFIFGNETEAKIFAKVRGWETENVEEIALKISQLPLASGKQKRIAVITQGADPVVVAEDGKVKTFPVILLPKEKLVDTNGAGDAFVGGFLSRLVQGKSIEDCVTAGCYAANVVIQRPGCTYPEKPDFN
T2 sequence (O49923 whole entry): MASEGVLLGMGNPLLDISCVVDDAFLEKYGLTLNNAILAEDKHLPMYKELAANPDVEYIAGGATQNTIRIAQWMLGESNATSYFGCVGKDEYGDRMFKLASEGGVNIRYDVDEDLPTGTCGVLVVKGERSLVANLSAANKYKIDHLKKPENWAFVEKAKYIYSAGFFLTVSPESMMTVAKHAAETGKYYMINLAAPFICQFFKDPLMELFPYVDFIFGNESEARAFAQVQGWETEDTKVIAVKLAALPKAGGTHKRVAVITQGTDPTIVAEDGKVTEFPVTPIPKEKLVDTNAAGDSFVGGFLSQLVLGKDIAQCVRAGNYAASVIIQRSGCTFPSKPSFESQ
Sequence of PpADK2 (A9RF27 entry or part of it): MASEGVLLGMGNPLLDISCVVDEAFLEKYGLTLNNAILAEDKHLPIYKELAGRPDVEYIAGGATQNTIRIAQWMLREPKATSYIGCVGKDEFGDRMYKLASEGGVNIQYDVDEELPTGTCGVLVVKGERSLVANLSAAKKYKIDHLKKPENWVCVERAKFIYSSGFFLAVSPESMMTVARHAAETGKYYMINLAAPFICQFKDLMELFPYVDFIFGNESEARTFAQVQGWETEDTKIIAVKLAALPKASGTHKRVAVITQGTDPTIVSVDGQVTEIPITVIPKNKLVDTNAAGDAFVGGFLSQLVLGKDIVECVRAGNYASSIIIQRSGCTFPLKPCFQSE
T1 sequence (B4FFH8 1-342 T4S): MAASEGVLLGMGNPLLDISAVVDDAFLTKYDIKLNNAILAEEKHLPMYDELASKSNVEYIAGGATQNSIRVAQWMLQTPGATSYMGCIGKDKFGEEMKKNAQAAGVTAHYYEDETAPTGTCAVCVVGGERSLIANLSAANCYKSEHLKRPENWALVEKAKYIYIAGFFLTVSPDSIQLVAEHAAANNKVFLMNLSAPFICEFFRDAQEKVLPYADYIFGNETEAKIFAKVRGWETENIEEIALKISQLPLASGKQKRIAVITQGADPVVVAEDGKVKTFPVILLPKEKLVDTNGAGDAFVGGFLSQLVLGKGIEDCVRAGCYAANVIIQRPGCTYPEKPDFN

Question: For Nc1nc2c(ncn2[C@@H]2O[C@H](CO)[C@@H](O)[C@H]2O)c(=O)[nH]1 [Guanosine], which Kd (ZmADK2 [1]; KD) is on record?
Answer: 217 ± 107 µM

Question: With OC[C@H]1O[C@@H](n2cnc3c(O)ncnc32)[C@H](O)[C@@H]1O [Inosine] as the compound, how does the Kd (ZmADK2 [1]; KD) read?
Answer: 440 ± 180 µM

Question: What does the source list for CN(C)c1ncnc2c1ncn2[C@@H]1O[C@H](CO)[C@@H](O)[C@H]1O [N ^6,N^6-DimethylAdo, 6-(dimethylamino)-9H-purine-9-β-D-riboside]?
Answer: Specific activity (ZmADK2 [2]; [5]): 3.2±0.0 nmol s^–1 mg^–1; Km (ZmADK2 [2]; ZmADK2, 10 mM ATP, 30 °C): 11.2 ± 2.8 µM; kcat (ZmADK2 [2]; ZmADK2, 10 mM ATP, 30 °C): 0.20±0.02 s^–1; Specific activity (ZmADK3): 5.1±0.4 nmol s^–1 mg^–1; Specific activity (PpADK1 [3]): 0.91±0.02 nmol s^–1 mg^–1; Specific activity (PpADK2): 0.86±0.03 nmol s^–1 mg^–1; Specific activity (ZmADK1): 3.0±0.3 nmol s^–1 mg^–1; Kd (ZmADK2 [1]; read-out: KD): 12.3 ± 4.6 µM

Question: Which Specific activity (ZmADK2 [2]; [5]) does the source give for CC(C)CNc1ncnc2c1ncn2[C@@H]1O[C@H](CO)[C@@H](O)[C@H]1O [N ^6-IsobutylAdo] here?
Answer: 4.2±0.6 nmol s^–1 mg^–1

Question: And the Km (ZmADK2 [2]; ZmADK2, 10 mM ATP, 30 °C)?
Answer: 70.4 ± 8.9 µM

Question: And the kcat (ZmADK2 [2]; ZmADK2, 10 mM ATP, 30 °C)?
Answer: 0.21±0.01 s^–1

Question: What about the Specific activity (ZmADK3) of the same compound?
Answer: 4.8±0.5 nmol s^–1 mg^–1

Question: What about the Specific activity (PpADK1 [3]) of the same compound?
Answer: 0.90±0.06 nmol s^–1 mg^–1

Question: And the Specific activity (PpADK2)?
Answer: 0.75±0.08 nmol s^–1 mg^–1

Question: What about the Specific activity (ZmADK1) of the same compound?
Answer: 2.1±0.4 nmol s^–1 mg^–1

Question: What about the Kd (ZmADK2 [1]; read-out: KD) of the same compound?
Answer: 45.9 ± 9.3 µM

Question: What does the source list for CC(C)Nc1ncnc2c1ncn2[C@@H]1O[C@H](CO)[C@@H](O)[C@H]1O [N ^6-IsopropylAdo]?
Answer: Specific activity (ZmADK2 [2]; [5]): 3.9±0.5 nmol s^–1 mg^–1; Km (ZmADK2 [2]; ZmADK2, 10 mM ATP, 30 °C): 54.8 ± 5.8 µM; kcat (ZmADK2 [2]; ZmADK2, 10 mM ATP, 30 °C): 0.19±0.01 s^–1; Specific activity (ZmADK3): 3.8±0.3 nmol s^–1 mg^–1; Specific activity (PpADK1 [3]): 0.96±0.09 nmol s^–1 mg^–1; Specific activity (PpADK2): 0.83±0.05 nmol s^–1 mg^–1; Specific activity (ZmADK1): 2.2±0.2 nmol s^–1 mg^–1; Kd (ZmADK2 [1]; read-out: KD): 52.8 ± 13.9 µM

Question: With CNc1ncnc2c1ncn2[C@@H]1O[C@H](CO)[C@@H](O)[C@H]1O [N ^6-MethylAdo, 6-methylamino-9H-purine-9-β-D-riboside] as the compound, how does the Specific activity (ZmADK2 [2]; [5]) read?
Answer: 2.9±0.3 nmol s^–1 mg^–1

Question: And the Km (ZmADK2 [2]; ZmADK2, 10 mM ATP, 30 °C)?
Answer: 10.7 ± 1.5 µM

Question: And the kcat (ZmADK2 [2]; ZmADK2, 10 mM ATP, 30 °C)?
Answer: 0.24±0.02 s^–1

Question: What about the Specific activity (ZmADK3) of the same compound?
Answer: 5.1±0.4 nmol s^–1 mg^–1

Question: What about the Specific activity (PpADK1 [3]) of the same compound?
Answer: 0.89±0.00 nmol s^–1 mg^–1

Question: What about the Specific activity (PpADK2) of the same compound?
Answer: 0.86±0.03 nmol s^–1 mg^–1

Question: And the Specific activity (ZmADK1)?
Answer: 2.7±0.2 nmol s^–1 mg^–1

Question: And the Kd (ZmADK2 [1]; read-out: KD)?
Answer: 8.7 ± 2.5 µM

Question: For O=c1ccn([C@@H]2O[C@H](CO)[C@@H](O)[C@H]2O)c(=O)[nH]1 [Uridine], which Km (ZmADK2 [2]; ZmADK2, 10 mM ATP, 30 °C) is on record?
Answer: > 1000 µM

Question: And the kcat (ZmADK2 [2]; ZmADK2, 10 mM ATP, 30 °C)?
Answer: 0.15±0.03 s^–1

Question: What about the Kd (ZmADK2 [1]; KD) of the same compound?
Answer: > 5000 µM

Question: Which Kd (ZmADK2 [1]; KD) does the source give for O=c1[nH]c(=O)c2ncn([C@@H]3O[C@H](CO)[C@@H](O)[C@H]3O)c2[nH]1 [Xanthosine] here?
Answer: 166 ± 77 µM

Question: Which Km (rabbit ADK) does the source give for C/C(=C\CNc1ncnc2c1ncn2[C@@H]1O[C@H](CO)[C@@H](O)[C@H]1O)CO [ZR] here?
Answer: 20 µM

Question: And the “activity compared with Ado” value (rabbit ADK)?
Answer: 6.3%

Question: What does the source list for CC(C)=CCNc1ncnc2c1ncn2C1OC(CO)C(O)C1O (stereo not drawn) [iPR, N ^6-isopentenyl adenosine]?
Answer: Specific activity (ZmADK2 [2]): 4.1±0.4 nmol s^–1 mg^–1; kcat (ZmADK2 [2]): 0.19±0.01 s^–1; Specific activity (ZmADK3): 5.1±0.3 nmol s^–1 mg^–1; Km (ZmADK3): 4.3 ± 0.4 µM; kcat (ZmADK3): 0.22±0.007 s^–1; Specific activity (PpADK1 [3]): 0.93±0.11 nmol s^–1 mg^–1; Km (rabbit ADK): 7 µM; activity compared with Ado (rabbit ADK): 69%; Specific activity (PpADK2): 0.83±0.08 nmol s^–1 mg^–1; Km (PpADK2): 4 ± 0.3 µM; kcat (PpADK2): 0.03±0.001 s^–1; Specific activity (ZmADK1): 2.8±0.3 nmol s^–1 mg^–1; Km (ZmADK1): 8.5 ± 0.7 µM; kcat (ZmADK1): 0.10±0.002 s^–1; Km (all five ADKs): 4 to 12 µM; Kd (ZmADK2 [1]; KD): 4.8 ± 1.1 µM; Kd (PpADK1 [4]): 5.5 µM
